Where two headings read alike, the source gives them in different places.
Legend:
[1] = Scrub resistance of pigmented and complete PUDs (ISO 11998); type: physicochemical; conditions: for Wt. Loss: 200 wet-scrub cycles; for Loss of thickness after 200 wet-scrub cycles: calculated from weight loss
Text: (§1) Tests were first performed to determine the coalescing agent level for pigmented and complete PUD formulations in order to achieve the optimum film formation. Complete paints were mixed with 0.7 wt. %, 1.5 wt. %, 3.0 wt. % and 5.0 wt. % of coalescing agents and applied on tin plated steel at a wet film thickness of around 250 μm, where the weight percentage was based on the pure polyurethane dispersion resins. […] Based on the observations, 3 wt. % dosage of coalescing agent was selected. Complete PUD formulations with pigments, fillers and other additives were prepared as per Table 5, and used to test and determine the coalescing properties of the caprolactam-derived solvents and other known coalescing agents.
Scrub resistance was tested according the ISO 11998 “Paints and Varnishes—Determination of Wet-Scrub Resistance and Cleanability of Coatings” standard. In this testing method, the paint was applied on a test panel (Leneta sheet) using a film applicator at the specific gap clearance. After drying and conditioning for four weeks at room temperature the coated panel was weighed and subject to 200 wet-scrub cycles in a scrub resistance machine. The panel was then washed, dried and weighed to determine the loss from which the mean loss in film thickness was calculated. […] For instance, N-methyl caprolactam (NM CPL), N-ethyl caprolactam (NE CPL), and blends thereof in the ratios of 1:2 and 1:1, all had less loss of thickness (2.035 μm, 1.797 μm, 1.39 μm, and 1.64 μm, respectively) as compared to NMP (2.090 μm) and NBP (2.213 μm).

[2] = MFFT of pigmented and complete PUDs; type: physicochemical; conditions: pigmented and complete PUD, 3 wt. % coalescing agent
Text: as §1, with “agents. The standard test for determining this temperature involves using a MFFT-BAR, as specified by standards ASTM D 2354 and ISO 2115. In general, the MFFT of a paint or coating is reduced temporarily by the use of coalescing agents.” for “agents.”

[3] = Color of pigmented and complete PUDs (ISO 7724-2); type: physicochemical
Text: as §1
(§2) Gloss measurements serve as an indicator of the paints surface quality. Gloss and color measurements were determined according to the ISO 2813 standard and the ISO 7724-2 standard (SCI-D65/10°), respectively.

[4] = Open time (ASTM D7488); type: physicochemical; conditions: ASTM D7488, 23±2° C., 50±5% RH, wet film 200 μm
Text: as §1
Open times were determined according to the ASTM D7488 “Test Method for Open Time of Latex” standard and the tests were performed under controlled temperature and humidity (23±2° C. and 50±5% RH). In general, the paints were applied at a wet film thickness of 200 μm on contrasting sealed charts by means of a doctor blade applicator, and “X” marks are made immediately with the wide curved end of a wooden paint brush. After a determined time internal, the brush was dipped into the paint to be tested and brushing of the X-marks was started in perpendicular direction to the initial drawdown using 10 strokes back and forth to work the paint under test into the drawdown area. This procedure is repeated after several time intervals. After their complete drying (1 week), the painted panels are observed by two different observers and the time for which the “X” marks to become visible is considered as the open time.

[5] = Persoz hardness of pigmented and complete PUDs; type: physicochemical; conditions: pigmented
Text: as §1
Persoz hardness measurements were performed on pigmented paints that were applied on tin plated steel using a doctor blade applicator at a dry film thickness (DFT) around 50 μm according to the ISO 1522 standard. […] For instance, the 28 day hardness for N-ethyl caprolactam (NE CPL) was approximately 104.6±0.5, while the 28 day hardness for NMP was approximately 108.8±2.4, and the 28 day hardness for ester alcohol and N-methyl caprolactam (NM CPL) were approximately 124.8±1 and 126.0±1, respectively, while the 28 day hardness for NBP was approximately 135.8±5.

[6] = Gloss of pigmented and complete PUDs (ISO 2813); type: physicochemical
Text: as §1, §2

[7] = Freeze and thaw stability (ASTM D2243-95); type: physicochemical; conditions: for freeze-thaw stability: viscosity change (thickening of the paint): cycles of 16 hours at −20° C. and 8 hours at room temperature
Description: Water-based emulsions and dispersions are susceptible to irreversible coagulation by freezing. Freeze and thaw stability was tested according the ASTM D2243-95 standard.
For these examples, pigmented PUD paints were subject to freeze-thaw cycles of 16 hours at −20° C. and 8 hours at room temperature and subsequently subject to visible observations. The paints were then applied on a tin plated steel plate at a thickness of approximately 200 μm for observing film properties.
In addition, the freeze-thaw stability was best for caprolactam-derived coalescing agents (NM CPL) and the blends even after subject to five cycles (see FIG. 9). In particular, the paints were visually observed after each cycle to see if there was any viscosity change, i.e., thickening of the paint. Then, the dry films of the coatings were observed visually.

[8] = Drying time (ASTM D1640 / ASTM D5895); type: physicochemical; conditions: 200 μm humid film; blends by ASTM D1640, single solvents by ASTM D5895
Text: as §1
The drying times for the pigmented PUD formulations were determined according to the ASTM D1640 “Standard Test Methods for Drying, Curing, or Film Formation of Organic Coatings” standard or the ASTM D5895 “Standard Test Methods for Evaluating Drying or Curing During Film Formation of Organic Coatings Using Mechanical Recorders” standard. Four stages of drying can be identified depending on the trace left by the needle on the paint surface: Stage 1—Set-to-Touch time, Stage 2—Tack-Free time, Stage 3—Dry-Hard time, and Stage IV—Dry trough time. However, Stage IV is often hard to detect.
In general, the paints were applied at a humid film thickness of 200 μm by means of a bar coater on a Leneta sheet and the needle rate was set at 60 cm/hr.
For the present examples, the drying times for the 2:1 A:B, 1:1 A:B, and 1:2 A:B solvents were determined using the ASTM D1640 standard, and the drying times for NM CPL, NE CPL, NMP, NBP, ester amide, and ester alcohol were determined using the ASTM D5895 standard.

[9] = Solubility of DMPA in solvents
Description: Solubility was tested between the various solvents to determine their applicability in the PUD manufacturing processes. Solubility is the amount of a substance (coalescing agent) that dissolves in a unit volume of a liquid substance (solvent) to form a saturated solution under specified conditions of temperature and pressure. For the examples, amounts of […] (DMPA) were dissolved in each solvent.

[10] = Minimum film forming temperature, non-pigmented resin + coalescing agent; type: physicochemical; conditions: resin with 5 wt. % coalescing agent, film thickness 350 μm
[11] = Viscosity and storage stability of pigmented PUD formulations; type: physicochemical; conditions: 1 month at 50° C., FIG. 5
Text: as §1
Dispersions and emulsions tend to aggregate polyurethane particles during storage. One way to determine the stability of a polyurethane dispersion is to measure viscosity of the polyurethane dispersion over time. Viscosity is a measure of a solvent's resistance to gradual deformation by shear stress or tensile stress. […] The storage stability of the dispersions was evaluated based on variations between viscosity measurements performed on paints shortly after their preparation and after their storage for either one month at room temperature or one month at 50° C.

Compound	MFFT [10] [°C]	Solubility [9]	Wt. Loss [1] [g/m^2]	Loss of thickness after 200 wet-scrub cycles [1]	MFFT [2] [°C]	Color (Black background) L* [3]	Color (Black background) a* [3]	Color (Black background) b* [3]	Color (White background) L* [3]	Color (White background) a* [3]	Color (White background) b* [3]	Open Time [4] [min]	Persoz Hardness ([5]; 1 Day, in s)	Persoz Hardness ([5]; 7 Days, in s)	Persoz Hardness ([5]; 14 Days, in s)	Persoz Hardness ([5]; 21 Days, in s)	Gloss 20° [6]	Gloss 60° [6]	Gloss 85° [6]	Drying Time [8] [min]	also measured
2, 2, 4-trimethyl-1,3-pentanediol monoisobutyrate [Ester alcohol, reference compound]	–	–	7.747	4.439 µm	−0.4	94.93	−0.87	2.30	95.6	−0.51	3.16	10	98.2 ± 3	118.0 ± 1	120.0 ± 2	122.0 ± 2	1.3 ± 0	3.0 ± 0	19.6 ± 0.3	13.6	Persoz Hardness ([5]; 28 Days): approximately 124.8±1; Persoz Hardness ([5]; 28 Days, in s): 124.8 ± 1; freeze-thaw stability: viscosity change (thickening of the paint) [7]: thickening of the paint samples after two cycles
COC(=O)CCCCC(=O)N(C)C [Ester amide, Hexanoic acid, 6-(dimethylamino)-6-oxo, methyl ester]	–	–	7.920	4.040 µm	−0.6	93.84	−1.05	2.03	94.98	−0.51	3.29	12	–	–	–	–	1.3 ± 0	3.3 ± 0	24.2 ± 0.2	13.3	Solubility ([9]; DMPA dissolved in each solvent): 10.0 g/100 g of Solvent
CCCCN1CCCC1=O [NBP, N-butyl pyrrolidone, reference compound]	−0.4±0.2	–	4.142	2.213 µm	−0.7	94.00	−1.04	2.20	95.01	−0.56	3.32	12	64.4 ± 3	127.0 ± 2	133.2 ± 5	136.6 ± 6	1.3 ± 0	2.8 ± 0	19.9 ± 0.2	11.8	freeze-thaw stability: viscosity change (thickening of the paint) [7]: thickening of the paint samples after two cycles
N-butyl pyrrolidone [NBP, reference compound]	–	20.0 g/100 g of Solvent	–	–	–	–	–	–	–	–	–	–	–	–	–	–	–	–	–	–	–

Continued, in another order:

MFFT [10] [°C]	Solubility [9]	Compound	Wt. Loss [1] [g/m^2]	Loss of thickness after 200 wet-scrub cycles [1]	MFFT [2] [°C]	Color (Black background) L* [3]	Color (Black background) a* [3]	Color (Black background) b* [3]	Color (White background) L* [3]	Color (White background) a* [3]	Color (White background) b* [3]	Open Time [4] [min]	Persoz Hardness ([5]; 1 Day, in s)	Persoz Hardness ([5]; 7 Days, in s)	Persoz Hardness ([5]; 14 Days, in s)	Persoz Hardness ([5]; 21 Days, in s)	Gloss 20° [6]	Gloss 60° [6]	Gloss 85° [6]	Drying Time [8] [min]	also measured
–	54.0 g/100 g of Solvent	CN1CCCC1=O [NMP, N-methyl pyrrolidone, reference compound]	3.372	2.090 µm	−1.4	94.55	−0.88	2.20	95.14	−0.52	3.02	12	94.2 ± 0.4	101.0 ± 2.4	100.6 ± 1.7	107.6 ± 1.3	1.3 ± 0	3.6 ± 0	30.7 ± 0.6	19.8	–
−1.3±0.3	10.0 g/100 g of Solvent	CCCCN1CCCCCC1=O [N—BuCPL, N-butyl caprolactam]	–	–	–	–	–	–	–	–	–	–	–	–	–	–	–	–	–	–	–
−1.4±0.3	20.0 g/100 g of Solvent	CCN1CCCCCC1=O [N—EtCPL, N-ethyl caprolactam]	3.767	1.797 µm	−2.4	94.45	−0.92	2.46	95.04	−0.61	3.24	16	101.0 ± 1.0	102.0 ± 0.7	101.4 ± 2.6	104.0 ± 2.8	1.3 ± 0	3.0 ± 0	24.5 ± 0.5	17.4	effect on color (yellowing) ([3]; pigmented PUD): no yellowing; freeze-thaw stability and film properties (comparison) ([7]; FIGS. 8 and 9): better freeze-thaw stability and film properties than NBP and ester alcohol; storage stability (viscosity buildup) [11]: low viscosity buildup

From patent US12024584B2, “Methods and compositions for polyurethane dispersions using caprolactam-derived solvents” (AdvanSix Resins & Chemicals LLC, priority 2017, dated 2024)
